Data: patent publication US8569339B2, “Soluble guanylate cyclase activators” (Boehringer Ingelheim International GmbH, priority 2011, dated 2013)
Values after ≈ are worked out from the molar mass of the structure shown.

What was measured:
[1] = Assessment of solubility (HT solubility, pION, UV); assay type: physicochemical; details: incubated 16-19 hours, 1.0% DMSO, 100 uM; for solubility kinetic: pH 4.5 buffer (pION system solution), pH 4.5, aqueous buffer, kinetic from dmso stock, pH 4.5 buffer, read-out: Sol pH 4.5; for Sol pH 7.4: pH 7.4 buffer
Protocol: Solubility is measured by the following method.
DMSO stock samples at 10 mM conc are prepared. […] The samples are pierced and 100 ul of thawed samples are transferred into the PCR plate for analysis. Each sample is run in duplicate at each pH (pH 4.5 and 7.4). Up to 95 samples can be run in replicate at 2 pH's+1 DMSO (blank).
2. Preparation of pH 4.5 and 7.4 buffers:
pH 4.5 buffer: To 12.5 of system solution (pION) qs to 500 mL of distilled water (pH 2.85-2.90); adjust the pH to pH 4.5 with 0.5 N NaOH.
pH 7.4 buffer: To 12.5 of system solution (pION) qs to 500 mL of distilled water (pH 2.85-2.90); adjust the pH to pH 7.4 with 0.5N NaOH.
Preparation of UV blank plate:
75 ul of buffer (pH 7.4 or pH 4.5) is added to UV plate followed by addition of […] of N-propanol. The solution is mixed and the blank spectrum is read using spectrophotometer.
Preparation of Reference UV plate:
10 ul of each stock sample (including DMSO control) is added to 190 ul of N-propanol to prepare the reference stock plate. Reference stock samples are mixed and 5 ul of each stock sample is added to UV blank plate after it is read spectrophotometrically. The reference stock sample is mixed with blank solution in UV plate and the reference spectrum is read using UV spectrophotometer.
Preparation of sample for incubation:
Solubility at pH 7.4: 6 ul of each stock sample (including DMSO control) is added to the storage plate containing 600 ul of pH 7.4 buffer, mixed and incubated for 16-19 hours. The plate is sealed well during the incubation process. The DMSO content in the sample is 1.0%. The concn in deep well plates is 100 uM
6 ul of each stock sample (including DMSO control) is added to the deep well plate containing 600 ul of pH 4.5 buffer, mixed and incubated for 16-19 hours. The plate is sealed well during the incubation process. The DMSO content in the sample is 1.0%. The concn in deep well plates is 100 uM
Preparation of sample UV plate:
At the end of the incubation period, 100 uL of sample from the storage plate is vacuum filtered using a filter plate. This step wets the filters and the filtrate is discarded. Another 200 ul of the sample from the deep well plate is vacuum filtered using the same filter block but a clean filter plate. 75 ul of the filtrate from the filter plate is transferred to a UV sample plate. 75 ul of N-propanol is added to this UV plate. The solution is mixed and the spectrum is read using the UV spectrophotometer.
The spectra collected for blank, reference and sample from 250-498 nm is analyzed using pION software. If the sample precipitates out, the solubility is reported as XX μg/ml. If there is no precipitation and the sample is soluble, solubility is reported as […] (YY being the initial concentration of the compound in the sample).

[2] = target: T1, Recombinant human soluble guanylate cyclase (sGC) (Homo sapiens, UniProt Q02153); assay: Molecular assay: activation of heme-free sGC, cGMP detection (CisBio kit); assay type: biochemical; details: 300 pM heme-free sGC, 37° C., 60 minutes, cGMP formation
T1 construct: histidine tag (C); made in house; host or cells: Sf9 insect cells (baculovirus coinfection)
Protocol: The compounds of the invention may be evaluated in the following molecular assay:
Recombinant human soluble guanylate cyclase (sGC) is purified from Sf9 insect cells coinfected with baculoviruses expressing the alpha 1 or beta 1 subunit of sGC, both with a C-terminal histidine tag. Heme-free sGC is prepared by treating cell lysate with a final concentration of 0.5% Tween 20 prior to purification on a nickel affinity column.
sGC catalyzes the conversion of guanosine-5′-triphosphate (GTP) to cyclic guanosine monophosphate (cGMP). The activity of sGC is measured in vitro using the commercially available CisBio cGMP detection kit (catalog #62GM2PEB) in a 384 well format. In brief, 300 pM heme-free sGC is incubated in reaction buffer (50 mM MOPS pH 6.8, 0.2 N KOH, 50 mM NaCl, 2 mM MgCl2, 0.1% BSA, 1.25 mM IBMX, 0.25 mM TCEP, 50 nM GTP) in the presence or absence of dilutions of test compounds diluted in DMSO (final concentration of 1%) in a volume of 10 microL at 37° C. for 60 minutes. Undiluted reaction products or an 80-fold dilution of reaction products (10 microL of either) prepared in reaction buffer containing 0.2 mM TCEP and 10 mM EDTA is mixed with 5 microL of d2-cGMP plus 5 microL of Eu^3+cryptate-labeled anti-cGMP, each diluted in buffer containing 0.1 M KPO4 pH 7.5, 0.4 M KF, 20 mM EDTA, 0.2% BSA. After a one hour incubation at room temperature in the dark, the mixtures are quantified on an EnVision plate reader (PerkinElmer) according to manufacturer instructions (laser excitation 337 nm, emission 620 and 665 nm). The ratio at each compound concentration is converted to nM cGMP using the linear portion of a calibration curve. Log compound concentration is plotted against combined undiluted and diluted nM cGMP values to determine the EC50 for each curve.
Representative compounds of the present invention were tested for activity in the above assay. Preferred compounds have an IC50<5,000 nM and more preferred compounds have an IC50<100 nM in this assay.

T1 sequence (Q02108 whole entry partner): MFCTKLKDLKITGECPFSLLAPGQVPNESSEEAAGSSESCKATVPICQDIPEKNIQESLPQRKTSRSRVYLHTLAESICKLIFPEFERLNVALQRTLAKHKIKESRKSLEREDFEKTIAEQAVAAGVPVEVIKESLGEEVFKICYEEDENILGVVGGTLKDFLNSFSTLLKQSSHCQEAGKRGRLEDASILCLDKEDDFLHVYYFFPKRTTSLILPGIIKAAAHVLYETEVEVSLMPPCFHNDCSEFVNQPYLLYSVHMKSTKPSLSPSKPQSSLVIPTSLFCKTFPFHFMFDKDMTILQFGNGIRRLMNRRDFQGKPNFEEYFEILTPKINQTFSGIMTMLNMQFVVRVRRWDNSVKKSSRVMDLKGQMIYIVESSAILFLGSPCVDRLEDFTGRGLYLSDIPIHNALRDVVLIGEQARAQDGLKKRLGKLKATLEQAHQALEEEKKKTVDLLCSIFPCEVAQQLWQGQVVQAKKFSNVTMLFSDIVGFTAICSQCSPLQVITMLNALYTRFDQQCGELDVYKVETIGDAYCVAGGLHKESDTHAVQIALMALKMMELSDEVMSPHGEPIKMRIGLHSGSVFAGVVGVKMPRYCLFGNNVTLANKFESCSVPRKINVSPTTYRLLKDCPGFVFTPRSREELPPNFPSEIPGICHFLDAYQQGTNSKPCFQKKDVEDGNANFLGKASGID
T1 sequence (Q02153 whole entry): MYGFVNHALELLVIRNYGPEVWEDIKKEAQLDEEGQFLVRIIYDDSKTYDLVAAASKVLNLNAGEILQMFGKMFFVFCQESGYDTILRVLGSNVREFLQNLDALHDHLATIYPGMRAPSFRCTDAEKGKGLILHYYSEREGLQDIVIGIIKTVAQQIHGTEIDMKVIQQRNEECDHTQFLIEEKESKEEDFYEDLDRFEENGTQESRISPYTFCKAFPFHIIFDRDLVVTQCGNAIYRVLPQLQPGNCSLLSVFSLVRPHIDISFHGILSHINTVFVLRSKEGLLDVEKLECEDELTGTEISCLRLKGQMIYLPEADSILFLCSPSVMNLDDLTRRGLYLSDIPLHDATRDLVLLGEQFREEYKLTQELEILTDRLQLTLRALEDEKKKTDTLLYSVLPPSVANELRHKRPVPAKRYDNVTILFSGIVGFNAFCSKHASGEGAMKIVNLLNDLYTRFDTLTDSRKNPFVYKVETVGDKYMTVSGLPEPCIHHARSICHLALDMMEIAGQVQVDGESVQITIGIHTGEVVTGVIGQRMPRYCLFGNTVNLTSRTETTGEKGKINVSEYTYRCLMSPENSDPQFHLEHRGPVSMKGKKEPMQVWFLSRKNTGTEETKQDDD

Row | Compound | solubility kinetic [1] | Sol pH 7.4 [1] | EC50 [2]
1 | CCn1c(C(=O)O)cnc1-c1cccc(-c2cccc(C)c2OCc2ccc3c(c2)CCN(C2CCOCC2)C3)n1 [Compound 63, 3-ethyl-2-[6-[3-methyl-2-[(2-tetrahydropyran-4-yl-3,4-dihydro-1H-isoquinolin-6-yl)methoxy]phenyl]-2-pyridyl]imidazole-4-carboxylic acid] | > 78 µg/mL | 54.2 μg/mL | 14 nM
2 | Cc1ccc(OCc2ccc3c(c2)CCNC3)c(-c2cccc(-n3ncc(C(=O)O)c3C(F)(F)F)n2)c1 [Compound 4, 1-{6-[5-Methyl-2-(1,2,3,4-tetrahydroisoquinolin-6-ylmethoxy)phenyl]pyridin-2-yl}-5-trifluoromethyl-1H-pyrazole-4-carboxylic acid] | 17.6 µg/mL (≈ 34.6 µM) | 21.7 μg/mL | 575 nM
3 | Cc1ccc(OCc2ccc3c(c2)CCN(C)C3)c(-c2cccc(-c3ncc(C(=O)O)n3C)n2)c1 [Compound 41] | > 58 µg/mL | 11.8 μg/mL | 4540 nM
4 | Cc1ccc(OCc2ccc3c(c2)CCN(CC2CCOC2)C3)c(-c2cccc(-c3csc(C(=O)O)c3C)n2)c1 (centres unmarked) [Compound 51] | 44.7 µg/mL (≈ 80.6 µM) | 35.9 μg/mL | 340 nM
5 | Cc1cccc(-c2cccc(-c3ncc(C(=O)O)n3C)n2)c1OCc1ccc2c(c1)CCN(C1CCCCCC1)C2 [Compound 76] | > 66 µg/mL | >66 μg/mL | 100 nM
6 | Cc1ccc(OCc2ccc3snnc3c2)c(-c2cccc(-n3ncc(C(=O)O)c3C(F)(F)F)n2)c1 [Compound 7, 1-{6-[2-(benzo[1,2,3]thiadiazol-5-ylmethyoxy)-5-methylphenyl]pyridin-2-yl}-5-trifluoromethyl-1H-pyrazole-4-carboxylic acid] | 2.1 µg/mL (≈ 4.11 µM) | >51 μg/mL | 490 nM
7 | Cc1csc(CN2CCc3cc(COc4c(C)cccc4-c4cccc(-c5ncc(C(=O)O)n5C)n4)ccc3C2)n1 [Compound 69] |  |  | 8 nM
8 | Cc1ccc(OCc2ccc3c(c2)CCN(C)CC3)c(-c2cccc(-n3ncc(C(=O)O)c3C(F)(F)F)n2)c1 [Compound 40] | 16.3 µg/mL (≈ 30.4 µM) | 18.5 μg/mL | 32 nM
9 | Cc1cccc(-c2cccc(-c3c(C)c(C(=O)O)nn3CC(F)(F)F)n2)c1OCc1ccc2c(c1)CCN(C1CCOCC1)C2 [Compound 87] | 17.3 µg/mL (≈ 27.9 µM) | 14.1 μg/mL | 180 nM
10 | Cc1ccc(OCc2ccc3c(c2)CCN(CC2CCCOC2)C3)c(-c2cccc(-n3ncc(C(=O)O)c3C(F)(F)F)n2)c1 (centres unmarked) [Compound 26] | > 60 µg/mL | >60 μg/mL | 3 nM
11 | Cc1ccc(OCc2ccc3c(c2)CCN(C)C3)c(-c2cccc(-c3sc(C(=O)O)cc3C)n2)c1 [Compound 37, 4-methyl-5-{6-[5-methyl-2-(2-methyl-1,2,3,4-tetrahydro-isoquinolin-6-ylmethoxy)phenyl]pyridin-2-yl}-thiophene-2-carboxylic acid] | 14.1 µg/mL (≈ 29.1 µM) | 27.4 μg/mL | 198 nM
12 | Cc1ccc(OCc2ccc3c(c2)CCN(S(=O)(=O)CCCC(=O)O)C3)c(-c2cccc(-n3ncc(C(=O)O)c3C(F)(F)F)n2)c1 [Compound 3, 1-(6-{2-[2-(3-carboxypropane-1-sulfonyl)-1,2,3,4-tetrahydroisoquinolin-6-ylmethoxy]-5-methylphenyl}pyridin-2-yl)-5-trifluoromethyl-1H-pyrazole-4-carboxylic acid] | 0.8 µg/mL (≈ 1.21 µM) | >65 μg/mL | 27 nM
13 | Cc1ccc(OCc2ccc3c(c2)CCN3S(C)(=O)=O)c(-c2cccc(-n3ncc(C(=O)O)c3C(F)(F)F)n2)c1 [Compound 9, 1-{6-[2-(1-methanesulfonyl-2,3-dihydro-1H-indol-5-ylmethyoxy)-5-methylphenyl]pyridin-2-yl}-5-trifluoromethyl-1H-pyrazole-4-carboxylic acid] | 0.4 µg/mL (≈ 0.699 µM) | >54 μg/mL | 67 nM
14 | Cc1cccc(-c2cccc(-n3cnc(C(=O)O)c3C)n2)c1OCc1ccc2c(c1)CCN(C1CCOCC1)C2 [Compound 57, 5-methyl-1-[6-[3-methyl-2-[(2-tetrahydropyran-4-yl-3,4-dihydro-1H-isoquinolin-6-yl)methoxy]phenyl]-2-pyridyl]imidazole-4-carboxylic acid] | > 78 µg/mL | >78 μg/mL | 1100 nM
15 | Cc1cccc(-c2cccc(-c3c(C)c(C(=O)O)nn3C3CC3)n2)c1OCc1ccc2c(c1)CCN(C1CCOCC1)C2 [Compound 91] | > 69 µg/mL | >69 μg/mL | 160 nM
16 | Cc1ccc(OCc2ccc3c(c2)CCN(C2CCOCC2)C3)c(-c2cccc(-c3ncc(C(=O)O)n3C)n2)c1 [Compound 66] | > 53 µg/mL | >53 μg/mL | 1830 nM
17 | Cc1ccc(OCc2ccc3c(c2C)CCN(C)C3)c(-c2cccc(-n3ncc(C(=O)O)c3C(F)(F)F)n2)c1 [Compound 38] | 15.5 µg/mL (≈ 28.9 µM) | 18.4 μg/mL | 46 nM
18 | Cc1ccc(OCc2cc3c(cc2C)CN(C)CC3)c(-c2cccc(-n3ncc(C(=O)O)c3C(F)(F)F)n2)c1 [Compound 62, 1-[6-[2-[(2,7-dimethyl-3,4-dihydro-1H-isoquinolin-6-yl)methoxy]-5-methylphenyl]-2-pyridyl]-5-(trifluoromethyl)pyrazole-4-carboxylic acid] | 2.8 µg/mL (≈ 5.22 µM) | 1.2 μg/mL | 440 nM
19 | CCn1nc(C(=O)O)c(C)c1-c1cccc(-c2cccc(C)c2OCc2ccc3c(c2)CCN(C2CCOCC2)C3)n1 [Compound 82] | > 67 µg/mL | >67 μg/mL | 210 nM
20 | Cc1ccc(OCc2ccc3c(c2)CCN(C2CCOCC2)C3)c(-c2cccc(-n3ncc(C(=O)O)c3C(F)(F)F)n2)c1 [Compound 34] | 41.5 µg/mL (≈ 70 µM) | 41.8 μg/mL | 8 nM
21 | Cc1ccc(OCc2ccc3c(c2)CCN(C)C3=O)c(-c2cccc(-n3ncc(C(=O)O)c3C(F)(F)F)n2)c1 [Compound 8] | 6.9 µg/mL (≈ 12.9 µM) | >53 μg/mL | 280 nM
22 | Cc1cccc(-c2cccc(-c3ncc(C(=O)O)n3C)n2)c1OCc1ccc2c(c1)CCN(CC1CCOCC1)C2 [Compound 68] |  |  | 180 nM
